Where two headings read alike, the source gives them in different places. Peptide text beside a SMILES is read from it. * marks the point of attachment. Cbz = O=C(OCc1ccccc1)*

This is an account of results in publication PMC9679992, “Fusicoccin-A Targets Cancerous Inhibitor of Protein Phosphatase 2A by Stabilizing a C-Terminal Interaction with 14-3-3” (ACS Chemical Biology, 2022).

Test [1] addresses T1, GST-14-3-3η (Homo sapiens, UniProt Q04917).
T1 construct: made in house; host or cells: Rosetta 2 (DE3)pLysS E. coli
T1 sequence (Q04917 1-246): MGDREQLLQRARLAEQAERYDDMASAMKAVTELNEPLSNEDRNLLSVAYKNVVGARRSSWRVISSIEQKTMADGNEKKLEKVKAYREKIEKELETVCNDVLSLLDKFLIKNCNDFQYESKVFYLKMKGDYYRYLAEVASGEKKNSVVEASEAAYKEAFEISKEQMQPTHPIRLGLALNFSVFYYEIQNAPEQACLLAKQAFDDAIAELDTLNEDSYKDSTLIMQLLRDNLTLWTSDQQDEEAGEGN
Nature of the test: Fluorescent polarization, GST14-3-3η titrated to FAM-pCIP2A peptide. Particulars: FP, GST14-3-3η titrated to 100 nM FAM peptide, PBS pH 7.5, RT, 30 min. The format is binding, Hs.
Experimental: Data is shown as mean ± SEM of three independent experiments. (E) Fluorescent polarization GST14-3-3η concentration–response curves generated in the presence of 10 μM FC-A or buffer using 100 nM of peptide 3. (F) Fluorescent polarization concentration–response curve of FC-A stabilizing the interaction between 1.5 μM GST14-3-3η and 100 nM peptide 3. Data is presented as the mean ± SEM of three independent experiments.
First, concentration–response curves were made using peptide 3, which was N-terminally labeled with fluorescein and in which Ser904 is phosphorylated by titrating to N-terminally GST-tagged 14-3-3η (GST-14-3-3η) at a fixed concentration of FC-A (10 μM) or a buffer control.
peptide was dissolved in phosphate saline buffer (PBS) with a pH of 7.5. Concentration curves of recombinant GST-14-3-3η were produced by mixing various concentrations of the protein diluted in assay buffer (PBS, pH=7.5) with a fixed 100 nM of the FAM labelled peptide and either a DMSO vehicle control or a fixed 10 μM Fusicoccin – A (FC-A). FC-A concentration curves were generated by mixing various concentrations of FC-A diluted in PBS with a fixed 100 nM of FAM - CIP2A and a fixed 4.7 μM of GST-14-3-3η. […]

Test [2] concerns ERα. Particulars: cited from earlier work.
The test system of test [3] is GST-14-3-3η / CIP2A. Put plainly: GST-14-3-3η pulldown of CIP2A, MDA-MB-468 cell lysates. Type of test: binding. Particulars: lysate preincubated with 200 μM ATP, 10 mM MgCl2, 1 hour 37 °C. As to the method:
(§1) (A) Cartoon showing FC-A coupled to magnetic hydrazide beads. (B) Western blot showing the results of an FC-beads pulldown experiment in MDA-MB-468 cell lysates. (C) Western blot of the GST14-3-3η pulldown of CIP2A in MDA-MB-468 cell lysates. […] (D) Western blot of MDA-MB-468 cell lysates after treatment of cells with 30 μM FC-A or a vehicle control for 24 h before harvest. Quantification was performed after normalization to an actin loading control. […] Membrane was probed with our custom CIP2A pS904, C-terminal CIP2A, and actin antibodies. (E) Western blot of GST14-3-3η pulldown of CIP2A in MDA-MB-468 cell lysates from cells either treated with 30 μM FC-A or a vehicle control for 24 h before harvest. Representative Western blots are shown of three (B–D) or two (E) independent experiments.

Test [4] has as its target T2, 14-3-3η (N-terminally GST tagged) (Homo sapiens, UniProt Q04917).
T2 construct: made in house; host or cells: Rosetta 2 (DE3)pLysS E. coli
T2 sequence (Q04917 1-246): T1 sequence (Q04917 1-246)
Nature of the test: HTRF assay of CIP2A C-terminal peptides with GST14-3-3η. The conditions noted are these: HTRF concentration–response, nonphosphorylated peptide; 10 nM GST14-3-3η; presence or absence of 10 μM FC-A. Type of test: binding, Hs. In general terms: In TR-FRET formats the signal depends on donor and acceptor labels being close together.
Text: Therefore, using (non)phosphorylated C-terminal CIP2A peptides, we investigated whether 14-3-3 could directly interact with CIP2A (Figure 1C). First, we developed a homogeneous time-resolved FRET (HTRF) assay for this putative interaction and its phosphorylation dependence (Figure 1D). […] Europium is excited at a wavelength of 337 nm resulting in emission at a wavelength of 620 nm. If 14-3-3 interacts with the CIP2A peptide, resonance energy transfer can occur resulting in excitation and emission of XL665 at a wavelength of 665 nm.
Data is shown as mean ± SEM of three independent experiments. […] Data is presented as the mean ± SEM of three independent experiments.

Test [5] has as its system H^+-ATPase. Particulars: 14-3-3/FC-A; cited from earlier work.
For test [6], the system named is 14-3-3η/pCIP2A complex. Put plainly: Fluorescent polarization, FC-A stabilization of 14-3-3η/pCIP2A. On the set-up: species or system Hs. Particulars: FP, FC-A titrated to 100 nM peptide 3 and 1.5 μM GST14-3-3η (legend; SI: 4.7 μM); PBS, RT, 30 min; mean of three independent experiments; read-out: EC50 (FC-A enhancing binding of 14-3-3η to pCIP2A). An excerpt: Figure 1 The C-terminus of CIP2A contains a mode-III 14-3-3 binding motif. (A) CIP2A’s C-terminus overlaid with 14-3-3 mode-III binding motif. The putative phosphosite is highlighted red with an alignment of the C-terminal amino acid sequence of CIP2A from different species shown below. (B) Chemical structure of Fusicoccin-A. (C) Overview of N-terminally biotinylated or fluorescein labeled CIP2A peptides either non- or phosphorylated on Ser904. (D) Homogeneous time-resolved FRET (HTRF) assay in which an N-terminally GST tagged 14-3-3η is targeted with an anti-GST europium (Eu) cryptate labeled monoclonal antibody and CIP2A peptides 1 and 2 used are N-terminally biotinylated and labeled with streptavidin conjugated to XL665. Concentration–response curves are shown for peptide 1 (Ser904) and peptide 2 (pSer904) in the presence or absence of a fixed 10 μM FC-A and 10 nM GST14-3-3η. Data is shown as mean ± SEM of three independent experiments. […]
FC-A beads were produced in a two-step reaction as previously described by Feyerabend and Weiler, 1987 by first generating FC-aldehyde (FC-Ald) which, was subsequently coupled to magnetic hydrazide beads (Chemicell, Cat#1404). […] Before coupling to magnetic hydrazide beads reaction efficiency was determined by HPLC analysis. […]

The test system of test [7] is cancer cells, including breast cancer. The conditions noted are these: FC-A and its derivatives; cited from earlier work. The source says: It has been shown that polo-like kinase 1 (PLK1) can bind to the C-terminal tip of CIP2A and phosphorylate its penultimate residue Ser904.[11] We hypothesized that phosphorylation of Ser904 could create a C-terminal binding site for the regulatory proteins 14-3-3, which act as molecular scaffolds in the cell through regulation of protein–protein interactions (PPIs) in key cellular processes. A unique feature of a subset of C-terminal 14-3-3 interactions is that they can be targeted by the diterpene glucoside Fusicoccin-A (FC-A) for PPI stabilization.[12],[13] In several studies, FC-A and its d ...

Test [8] concerns CIP2A / 14-3-3. Put plainly: GST14-3-3η pulldown of CIP2A from FC-A treated MDA-MB-468 cells. The format is cell-based. The conditions noted are these: cells treated with 30 μM FC-A 24 h vs control; two independent experiments. The protocol:
as §1, with “experiments. […]” for “experiments.”

Test [9] relates to CIP2A Ser904. Type of test: cell-based. The protocol: as §1, with “experiments. […]” for “experiments.”
Test [10] deals with CIP2A. The format is cell-based. As to the method: as §1, with “experiments. […]” for “experiments.”

With `CC[C@H](C)[C@H](NC(=O)[C@H](COP(=O)(O)O)NC(=O)[C@H](CC(C)C)NC(=O)[C@H](CC(N)=O)NC(=O)[C@@H](NC(=O)[C@@H](NC(=O)[C@H](CCC(=O)O)NC(=O)[C@@H]1CCCN1C(=O)[C@H](CC(N)=O)NC(=O)[C@@H](NC(=O)c1ccc2c(c1)C(=O)OC21c2ccc(O)cc2Oc2cc(O)ccc21)[C@@H](C)CC)[C@@H](C)O)C(C)C)C(=O)O` [FAM-pCIP2A peptide], the EC50 stood at 118 µM in test [1] (buffer / DMSO control, read-out: EC50) and 2.76 µM in test [1] (fixed 10 μM FC-A, read-out: EC50 (shift in presence of FC-A)).

For `CC(C)C[C@@H](C=O)NC(=O)[C@H](CC(C)C)NC(=O)[C@H](CC(C)C)NC(=O)OCc1ccccc1` [MG132] (Cbz-Leu-Leu-Leu-aldehyde), the “effect on phosphorylation of ERα C-terminal tip” value in test [2] (proteasome inhibitor MG132, in addition to FC-A) is given as “additional requirement for phosphorylation of the C-terminal tip”.

As to `Nc1ncnc2c1ncn2[C@@H]1O[C@H](COP(=O)(O)OP(=O)(O)OP(=O)(O)O)[C@@H](O)[C@H]1O` [ATP], in test [3], the “effect on CIP2A pulldown by GST-14-3-3η” value is given as “more CIP2A was identified in pulldown samples”.

For the molecule “Bio-LSSGGKINPETVNL-S^904-I-COOH [peptide 1, N-terminally biotinylated nonphosphorylated C-terminal CIP2A peptide]”, the “interaction with 14-3-3” value in test [4] is on record as “does not interact with 14-3-3”.

With `C=CC(C)(C)OC[C@H]1O[C@H](O[C@@H]2C3=C([C@H](C)COC(C)=O)C[C@H](O)[C@]3(C)/C=C3/[C@@H](COC)CC[C@H]3[C@@H](C)[C@H]2O)[C@H](O)[C@@H](OC(C)=O)[C@@H]1O` [FC-A, Fusicoccin-A], in test [5], the “protection of penultimate C-terminal phosphorylation site” value is “shields the penultimate C-terminal phosphorylation site from phosphatases”. Also, in test [6], the EC50 stood at 11.8 µM. Further, the antiproliferative effects entry in [7] is “antiproliferative effects in cancer cells, including breast cancer”. Moreover, in [8], the “CIP2A in GST-14-3-3η pulldown” value is “more CIP2A could be detected in these samples compared to control cell lysates”. The “Fold Change (Norm. to CTL): CIP2A pS904” value in test [9] worked out at 2.55. For the same molecule, in test [9] (FC-A 24 h, MDA-MB-468), the “effect on Ser904 phosphorylation levels” value is recorded as “Ser904 phosphorylation levels were enhanced”. Also, the “Fold Change (Norm. to CTL): CIP2A Tot.” value in test [10] is recorded as 0.79. For the same molecule, the “effect on total CIP2A in presence of cycloheximide” value in test [10] (30 μM FC-A with 100 µg/mL cycloheximide, 24 h, MDA-MB-468, three independent experiments) is given as “no changes in total CIP2A over a 24 h period”. Further, the “effect on total CIP2A” value in test [10] (FC-A 24 h, MDA-MB-468) is “did not affect total CIP2A”. The “effect on detection of C-terminal phosphorylation of ERα” value in [2] (MCF-7 cells treated with FC-A) is listed as “necessary to detect C-terminal phosphorylation of the ERα”.
